# Source: US11299473B2, “Benzimidazole and indole compounds and uses thereof” (Incyte Corporation, priority 2018, dated 2022)
# Biological target: active HPK1 (SignalChem M23-11G) (Homo sapiens (Human), UniProt Q92918)
# Assay: HPK1 Kinase Binding Assay
# Conditions: LanthaScreen tracer 222 / Eu-Anti GST antibody, one hour incubation at 25° C.
# Experimental: A stock solution of 1 mM test compound was prepared in DMSO. The compound plate was prepared by 3-fold and 11-point serial dilutions. 0.1 μL of the compound in DMSO was transferred from the compound plate to the white 384 well polystyrene plates. The assay buffer contained 50 mM HEPES, pH 7.5, 0.01% Tween-20, 5 mM MgCl2, 0.01% BSA, and 5 mM DTT. 5 μL of 4 nM active HPK1 (SignalChem M23-11G) prepared in the buffer was added to the plate. The enzyme concentration given was based on the given stock concentration reported by the vender. 5 μl of 18 nM tracer 222 (ThermoFisher PV6121) and 4 nM LanthaScreen Eu-Anti GST antibody (ThermoFisher PV5595) were added. After one hour incubation at 25° C., the plates were read on a PHERAstar FS plate reader (BMG Labtech). Ki values were determined.
# Chain of active HPK1 (SignalChem M23-11G) (Q92918 1-346 limits assumed): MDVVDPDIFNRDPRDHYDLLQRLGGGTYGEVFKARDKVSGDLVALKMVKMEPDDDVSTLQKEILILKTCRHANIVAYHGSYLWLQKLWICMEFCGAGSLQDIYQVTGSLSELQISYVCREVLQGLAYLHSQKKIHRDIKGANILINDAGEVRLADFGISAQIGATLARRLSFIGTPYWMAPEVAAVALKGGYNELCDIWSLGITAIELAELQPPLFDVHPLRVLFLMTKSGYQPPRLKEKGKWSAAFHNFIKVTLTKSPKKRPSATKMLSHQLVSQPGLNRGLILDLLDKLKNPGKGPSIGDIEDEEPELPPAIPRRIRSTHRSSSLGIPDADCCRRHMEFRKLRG
row,Ki,Compound
1,≤ 100 nM,"COc1cccc(F)c1-c1nccc(C(=O)Nc2ccc3c(nc(-c4ncccc4F)n3C)c2N2C[C@H](N)C[C@H]2CO)n1 [Example 1, N-(4-((2S,4R)-4-Amino-2-(hydroxymethyl)pyrrolidin-1-yl)-2-(3-fluoropyridin-2-yl)-1-methyl-1H-benzo[d]imidazol-5-yl)-2-(2-fluoro-6-methoxyphenyl)pyrimidine-4-carboxamide]"
2,≤ 100 nM,"Cn1c(-c2ncccc2F)nc2c(N3C[C@H](N)C[C@H]3CO)c(NC(=O)c3ccnc(-c4c(F)cccc4F)n3)ccc21 [Example 2, N-(4-((2S,4R)-4-Amino-2-(hydroxymethyl)pyrrolidin-1-yl)-2-(3-fluoropyridin-2-yl)-1-methyl-1H-benzo[d]imidazol-5-yl)-2-(2,6-difluorophenyl)pyrimidine-4-carboxamide]"
3,≤ 100 nM,"COc1cccnc1-c1nc2c(N3C[C@H](N)C[C@H]3CO)c(NC(=O)c3ccnc(-c4c(F)cccc4F)n3)ccc2n1C [Example 3, N-(4-((2S,4R)-4-Amino-2-(hydroxymethyl)pyrrolidin-1-yl)-2-(3-methoxypyridin-2-yl)-1-methyl-1H-benzo[d]imidazol-5-yl)-2-(2,6-difluorophenyl)pyrimidine-4-carboxamide]"
4,≤ 100 nM,"Cn1c(-c2ccccc2C#N)nc2c(N3C[C@H](N)C[C@H]3CO)c(NC(=O)c3ccnc(-c4c(F)cccc4F)n3)ccc21 [Example 4, N-(4-((2S,4R)-4-Amino-2-(hydroxymethyl)pyrrolidin-1-yl)-2-(2-cyanophenyl)-1-methyl-1H-benzo[d]imidazol-5-yl)-2-(2,6-difluorophenyl)pyrimidine-4-carboxamide]"
5,≤ 100 nM,"N#Cc1ccccc1-c1nc2c(N3C[C@H](N)C[C@H]3CO)c(NC(=O)c3ccnc(-c4c(F)cccc4F)n3)ccc2n1C1CC1 [Example 5, N-(4-((2S,4R)-4-amino-2-(hydroxymethyl)pyrrolidin-1-yl)-2-(2-cyanophenyl)-1-cyclopropyl-1H-benzo[d]imidazol-5-yl)-2-(2,6-difluorophenyl)pyrimidine-4-carboxamide]"
6,≤ 100 nM,"CN(c1c(NC(=O)c2ccnc(-c3c(F)cccc3F)n2)ccc2c1nc(-c1c(F)cncc1F)n2C)[C@@H]1CCCNC1 [Example 6, (R)-2-(2,6-Difluorophenyl)-N-(2-(3,5-difluoropyridin-4-yl)-1-methyl-4-(methyl(piperidin-3-yl)amino)-1H-benzo[d]imidazol-5-yl)pyrimidine-4-carboxamide]"
7,≤ 100 nM,"Cn1c(-c2ccncc2F)nc2c(N3C[C@H](N)C[C@H]3CO)c(NC(=O)c3ccnc(-c4c(F)cccc4F)n3)ccc21 [Example 7, N-(4-((2S,4R)-4-Amino-2-(hydroxymethyl)pyrrolidin-1-yl)-2-(3-fluoropyridin-4-yl)-1-methyl-1H-benzo[d]imidazol-5-yl)-2-(2,6-difluorophenyl)pyrimidine-4-carboxamide]"
8,≤ 100 nM,"COc1cccc(F)c1-c1nccc(C(=O)Nc2ccc3c(nc(-c4ccncc4F)n3C)c2N2CCOC[C@@H]2CN)n1 [Example 8, (S)—N-(4-(3-(Aminomethyl)morpholino)-2-(3-fluoropyridin-4-yl)-1-methyl-1H-benzo[d]imidazol-5-yl)-2-(2-fluoro-6-methoxyphenyl)pyrimidine-4-carboxamide]"
9,≤ 100 nM,"Cn1c(-c2ccncc2F)nc2c(N3CCNC[C@@H]3CO)c(NC(=O)c3ccnc(-c4c(F)cccc4F)n3)ccc21 [Example 9, (R)-2-(2,6-Difluorophenyl)-N-(2-(3-fluoropyridin-4-yl)-4-(2-(hydroxymethyl)piperazin-1-yl)-1-methyl-1H-benzo[d]imidazol-5-yl)pyrimidine-4-carboxamide]"
10,≤ 100 nM,"COc1cccc(F)c1-c1nccc(C(=O)Nc2ccc3c(nc(-c4ccncc4F)n3C)c2N2C[C@@H]3C[C@H]2CN3)n1 [Example 10, N-(4-((1S,4S)-2,5-Diazabicyclo[2.2.1]heptan-2-yl)-2-(3-fluoropyridin-4-yl)-1-methyl-1H-benzo[d]imidazol-5-yl)-2-(2-fluoro-6-methoxyphenyl)pyrimidine-4-carboxamide]"
11,≤ 100 nM,"COc1cccc(F)c1-c1nccc(C(=O)Nc2ccc3c(nc(-c4ccncc4F)n3C)c2N2C[C@@H]3C[C@H]2CO3)n1 [Example 11, N-(4-((1S,4S)-2-Oxa-5-azabicyclo[2.2.1]heptan-5-yl)-2-(3-fluoropyridin-4-yl)-1-methyl-1H-benzo[d]imidazol-5-yl)-2-(2-fluoro-6-methoxyphenyl)pyrimidine-4-carboxamide]"
12,≤ 100 nM,"COc1cccc(F)c1-c1nccc(C(=O)Nc2ccc3c(nc(C)n3C)c2N2CCC[C@H]2CN)n1 [Example 12, (S)—N-(4-(2-(Aminomethyl)pyrrolidin-1-yl)-1,2-dimethyl-1H-benzo[d]imidazol-5-yl)-2-(2-fluoro-6-methoxyphenyl)pyrimidine-4-carboxamide]"
13,≤ 100 nM,"COc1cccc(F)c1-c1nccc(C(=O)Nc2ccc3c(nc(C)n3C)c2N2CCC[C@@H]2CN)n1 [Example 13, (R)—N-(4-(2-(Aminomethyl)pyrrolidin-1-yl)-1,2-dimethyl-1H-benzo[d]imidazol-5-yl)-2-(2-fluoro-6-methoxyphenyl)pyrimidine-4-carboxamide]"
14,≤ 100 nM,"COc1cccc(F)c1-c1nccc(C(=O)Nc2ccc3c(nc(C)n3C)c2N2CCC[C@@H]2CO)n1 [Example 14, (R)-2-(2-Fluoro-6-methoxyphenyl)-N-(4-(2-(hydroxymethyl)pyrrolidin-1-yl)-1,2-dimethyl-1H-benzo[d]imidazol-5-yl)pyrimidine-4-carboxamide]"
15,≤ 100 nM,"COc1cccc(F)c1-c1nccc(C(=O)Nc2ccc3c(nc(C)n3C)c2N2C[C@H](N)C[C@H]2CO)n1 [Example 15, N-(4-((2S,4R)-4-Amino-2-(hydroxymethyl)pyrrolidin-1-yl)-1,2-dimethyl-1H-benzo[d]imidazol-5-yl)-2-(2-fluoro-6-methoxyphenyl)pyrimidine-4-carboxamide]"
16,≤ 100 nM,"COc1cccc(F)c1-c1nccc(C(=O)Nc2ccc3c(nc(C)n3C)c2N2C[C@H]3C[C@@H]2CN3)n1 [Example 16, N-(4-((1R,4R)-2,5-Diazabicyclo[2.2.1]heptan-2-yl)-1,2-dimethyl-1H-benzo[d]imidazol-5-yl)-2-(2-fluoro-6-methoxyphenyl)pyrimidine-4-carboxamide]"
17,≤ 100 nM,"COc1cccc(F)c1-c1nccc(C(=O)Nc2ccc3c(nc(C(C)C)n3C)c2N2C[C@@H]3C[C@H]2CN3)n1 [Example 17, N-(4-((1S,4S)-2,5-Diazabicyclo[2.2.1]heptan-2-yl)-2-isopropyl-1-methyl-1H-benzo[d]imidazol-5-yl)-2-(2-fluoro-6-methoxyphenyl)pyrimidine-4-carboxamide]"
18,≤ 100 nM,"COc1cccc(F)c1-c1nccc(C(=O)Nc2ccc3c(nc(-c4ccncc4F)n3C)c2N2CCC[C@H]2CN)n1 [Example 18, (S)—N-(4-(2-(Aminomethyl)pyrrolidin-1-yl)-2-(3-fluoropyridin-4-yl)-1-methyl-1H-benzo[d]imidazol-5-yl)-2-(2-fluoro-6-methoxyphenyl)pyrimidine-4-carboxamide]"
19,≤ 100 nM,"COc1cccc(F)c1-c1nccc(C(=O)Nc2ccc3c(nc(-c4ccnn4C)n3C)c2N2CCC[C@H]2CN)n1 [Example 19, (S)—N-(4-(2-(Aminomethyl)pyrrolidin-1-yl)-1-methyl-2-(1-methyl-1H-pyrazol-5-yl)-1H-benzo[d]imidazol-5-yl)-2-(2-fluoro-6-methoxyphenyl)pyrimidine-4-carboxamide]"
20,≤ 100 nM,"COc1cccc(F)c1-c1nccc(C(=O)Nc2ccc3c(nc(C4CCOCC4)n3C)c2N2CCC[C@H]2CN)n1 [Example 20, (S)—N-(4-(2-(Aminomethyl)pyrrolidin-1-yl)-1-methyl-2-(tetrahydro-2H-pyran-4-yl)-1H-benzo[d]imidazol-5-yl)-2-(2-fluoro-6-methoxyphenyl)pyrimidine-4-carboxamide]"
21,≤ 100 nM,"COCCn1c(C)nc2c(N3CCC[C@H]3CN)c(NC(=O)c3ccnc(-c4c(F)cccc4OC)n3)ccc21 [Example 21, (S)—N-(4-(2-(Aminomethyl)pyrrolidin-1-yl)-1-(2-methoxyethyl)-2-methyl-1H-benzo[d]imidazol-5-yl)-2-(2-fluoro-6-methoxyphenyl)pyrimidine-4-carboxamide]"
22,≤ 100 nM,"COC[C@@H](C)n1c(C)nc2c(N3CCC[C@H]3CN)c(NC(=O)c3ccnc(-c4c(F)cccc4OC)n3)ccc21 [Example 22, N-(4-((S)-2-(Aminomethyl)pyrrolidin-1-yl)-1-((R)-1-methoxypropan-2-yl)-2-methyl-1H-benzo[d]imidazol-5-yl)-2-(2-fluoro-6-methoxyphenyl)pyrimidine-4-carboxamide]"
23,≤ 100 nM,"COc1cccc(F)c1-c1nccc(C(=O)Nc2ccc3c(nc(C)n3CC(C)(C)OC)c2N2CCC[C@H]2CN)n1 [Example 23, (S)—N-(4-(2-(Aminomethyl)pyrrolidin-1-yl)-1-(2-methoxy-2-methylpropyl)-2-methyl-1H-benzo[d]imidazol-5-yl)-2-(2-fluoro-6-methoxyphenyl)pyrimidine-4-carboxamide]"
24,≤ 100 nM,"COc1cccc(F)c1-c1nccc(C(=O)Nc2ccc3c(nc(C)n3[C@H]3CCOC3)c2N2CCC[C@H]2CN)n1 [Example 24, N-(4-((S)-2-(Aminomethyl)pyrrolidin-1-yl)-2-methyl-1-((S)-tetrahydrofuran-3-yl)-1H-benzo[d]imidazol-5-yl)-2-(2-fluoro-6-methoxyphenyl)pyrimidine-4-carboxamide]"
25,≤ 100 nM,"COCc1nc2c(N3CCC[C@H]3CN)c(NC(=O)c3ccnc(-c4c(F)cccc4OC)n3)ccc2n1C [Example 25, (S)—N-(4-(2-(Aminomethyl)pyrrolidin-1-yl)-2-(methoxymethyl)-1-methyl-1H-benzo[d]imidazol-5-yl)-2-(2-fluoro-6-methoxyphenyl)pyrimidine-4-carboxamide]"
